The test system of test [1] is P388. As to the kind of experiment: Antineoplastic activity against mouse P388 cells. The class given is functional.
Test [2] concerns P388. As to the kind of experiment: In vivo antineoplastic activity against mouse P388 cells upto 2.0 mg/kg. Set-up: dose 2 mg/kg. The test is classed as functional, organism-based.
The test system of test [3] is P388. As to the kind of experiment: In vivo antineoplastic activity against mouse P388 cells assessed as increase in survival time at 0.08 to 0.60 mg/kg. The note with it: dose mg/kg 0.08-0.60. The class given is functional.

Molecules are shown by their SMILES. Calls of active or inactive are those of the source. The rule behind the calls is not given here. Some results are limits rather than exact numbers.

Consider `CC[C@@](C)(OC(C)=O)C(=O)O[C@H]1C(=O)O[C@@H]2C[C@H]3C(C)=C[C@H](O)[C@@H](O)[C@]3(C)[C@H]3[C@@]4(O)OC[C@]32[C@@H]1[C@@H](C)[C@H]4O`, for which the outcome in test [1] was inactive.
On to `C/C=C(/C)C(=O)O[C@@H]1[C@H]2C(C)=C[C@H](O)[C@@H](O)[C@]2(C)[C@H]2[C@@]3(O)OC[C@@]24[C@@H]1OC(=O)C[C@H]4[C@@H](C)[C@H]3O`, for which the result in test [2] was inactive. Also, the GI in test [1] worked out at 0.24 µg/mL.
Regarding `C/C=C(/C)C(=O)O[C@@H]1[C@H]2C(C)=CC(=O)[C@@H](O)[C@]2(C)[C@H]2[C@@]3(O)OC[C@@]24[C@@H]1OC(=O)C[C@H]4[C@@H](C)[C@H]3O`, in test [3], the Activity came to 34%. Further, the GI in test [1] was under 0.01 µg/mL.

Values taken from ChEMBL document CHEMBL1151349, “The antineoplastic quassinoids of Simaba cuspidata spruce and Ailanthus grandis Prain” (1980).
